Literature values as cited in PMC9947563, “Identification of the molecular determinants of antagonist potency in the allosteric binding pocket of human P2X4” (Frontiers in Pharmacology, 2023).
Read-outs that look alike come from different tables or passages of the source.

Key:
P2X1 = test system: P2X1; set-up: method as in Tian M. et al., 2020; settings: ref Tian M. et al., 2020; cited from earlier work
P2X7 = test system: P2X7; set-up: method as in Tian M. et al., 2020; settings: ref Tian M. et al., 2020; cited from earlier work
hP2X4 = settings: cited from earlier work

## O=C(Nc1cc(C(F)(F)F)cc(C(F)(F)F)c1)c1cccc(Cl)c1O [Tian-13]
P2X1
  IC50: 58 ± 21.9 nM
P2X7
  IC50: 177 ± 11 nM
hP2X4; ref Tian M. et al., 2020, read-out: P2X4 IC50
  IC50: 48.8 ± 11 nM
hP2X4; ref Tian et al. (2020), read-out: hP2X4 IC50
  IC50: 49 nM
